Experimental data as given in US20230142739A1, “PROTEIN-PROTEIN INTERACTION STABILIZERS” (The Regents of the University of California, priority 2020, published 2023).
Where two headings read alike, the source gives them in different places. One block for each molecule: values may come before it. Non-standard residues stand in square brackets, D forms with d. Residues, ends and D or L forms follow the SMILES beside them. *: point of attachment. 5FAM = O=C1OC2(c3ccc(O)cc3Oc3cc(O)ccc32)c2ccc(C(=O)*)cc21; pT = C[C@@H](OP(=O)(O)O)[C@H](N)C(=O)O; pS = N[C@@H](COP(=O)(O)O)C(=O)O

Assays:
Format in all cases: binding
14-3-3σ(C42) = target: T1, 14-3-3σ(C42) (Homo sapiens, UniProt P31947, C38N/N42C); experiment: Fluorescence anisotropy titration of 14-3-3σ(C42) to fluorescein-labeled partner peptides
T1 construct: with a truncated C-terminus after T231; His6 (N, cleaved yes); made in house; host or cells: E. coli NiCo21 (DE3), pPROEX HTb
T1 sequence (P31947 1-231 C38N/N42C): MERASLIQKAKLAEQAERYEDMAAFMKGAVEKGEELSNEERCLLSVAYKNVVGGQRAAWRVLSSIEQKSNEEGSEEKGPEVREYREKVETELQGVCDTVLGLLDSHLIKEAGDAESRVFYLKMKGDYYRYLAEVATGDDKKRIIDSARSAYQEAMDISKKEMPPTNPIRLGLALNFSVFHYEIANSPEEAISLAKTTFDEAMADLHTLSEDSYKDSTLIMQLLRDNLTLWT
Description: The 14-3-3/ER stabilizer FC (Fusicoccin) inhibits estradiol dependent signaling. FC (a natural product) inhibits dimerization of E2/ER and tamoxifen/ER. FC also blocks DNA binding and transcription (482) (PNAS May 28, 2013 110 (22) 8894-8899). Disulfide trapping for stabilizers of 14-3-3σ/ERα-pp (15-mer phosphopeptide representing the 14-3-3σ binding motif of ERα), was measured (J. Am. Chem. Soc. 2019, 141, 8, 3524-3531, FIG. 1b). Different cysteine residues yield different 14-3-3/client stabilizing chemical moieties. At each tethering residue, bound chemical moieties can be competitive with peptide, noncompetitive, or cooperative (J. Am. Chem. Soc. 2019, 141, 8, 3524-3531, FIG. 1c). […] 14-3-3σ (C42) expected mass: 26509 Da, βME capped mass: 26585 Da, protein-disulfide conjugate mass: 26795 Da. LC/MS dose response curves showing percentage of protein conjugate formation for titrations of disulfides to 14-3-3σ (C42) apo and bound to ERα-pp, were measured. […] LC/MS dose response curves showing percentage of protein conjugate formation for titrations of disulfides to 14-3-3σ (C42) apo and bound to ERα-pp, were measured. […] Dose-response curve of Fragment 1, which induces ERα binding, were measured (J. Am. Chem. Soc. 2019, 141, 8, 3524-3531, FIG. 2a-2b, supporting information). Small molecules stabilize 14-3-3σ/Erα-pp binding. […] Schematic of experimental design and Plot of anisotropy (mean+SD) for titrations of Frag001, Frag002, FC-A (natural product fusicoccane-A), or DMSO control to fluorescein-Erα-pp and 1 μM 14-3-3σ (C42) (J. Am. Chem. Soc. 2019, 141, 8, 3524-3531, FIG. 3a-3b). Dose-response curves were obtained by MS by analyzing % tethering for titrations of Fragment 2 to 14-3-3σ apo (− peptide;) or bound to different interaction partner-derived peptide motifs; ERα-pp ( ), TASK3-pp ( ), ExoS ( ) or TAZ-pp ( ), starting from 1 mM (J. Am. Chem. Soc. 2019, 141, 8, 3524-3531, FIG. 4b). LC/MS screening data of hits for 14-3-3σ (C42)+/−ERα-pp was collected. The deconvoluted LC/MS spectra of disulfide fragments bound to 14-3-3σ (C42) alone or in complex with ERα-pp were determined with 14-3-3σ (C42) expected mass: 26509 Da, βME capped mass: 26585 Da, protein-disulfide conjugate mass: between 26752-26919 Da. Fragments bound preferentially in the presence of ERα-pp: 959996 (1), 916971, and 917137 were termed ‘cooperative’. […] Fluorescence anisotropy (r) of fluorescein-ERα-pp versus concentration of 6 or FC-A binding to 14-3-3σ(C42) or 14-3-3σ(C45) was tested. […]
Fluorescence Anisotropy. […] Fluorescence anisotropy measurements were performed directly and after overnight incubation at room-temperature, using a Tecan Infinite F500 plate reader (filter set λex: 485±20 nm, λem: 535±25 nm). […]

Pin1_72/14-3-3 complex = target: T2, Pin1_72/14-3-3 complex (Homo sapiens, UniProt P61981); experiment: Fluorescence anisotropy compound titration, Pin1_72/14-3-3 (CC50)
T2 construct: the full length 14-3-3γ was dialysis against 25 mM HEPES pH 7.5; made in house; host or cells: E. coli BL21(DE3), pPROEX HTb
T2 sequence (P61981 1-247): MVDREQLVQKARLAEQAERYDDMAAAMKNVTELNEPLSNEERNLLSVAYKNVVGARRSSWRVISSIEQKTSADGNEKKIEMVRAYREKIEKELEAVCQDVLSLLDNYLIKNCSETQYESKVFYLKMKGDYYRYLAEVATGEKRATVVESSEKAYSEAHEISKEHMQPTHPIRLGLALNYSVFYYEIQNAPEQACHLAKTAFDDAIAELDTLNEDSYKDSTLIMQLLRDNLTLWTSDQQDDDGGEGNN
Description: Site-Directed Shift base fragment Screening. […] As measure of activity the inflection point of the curve was determined, representing the half-maximum complex formation (CC50).
(§1) Fluorescence Anisotropy (FA) Assays.

Pin1_72/14-3-3γ = target: T3, Pin1_72/14-3-3γ (Homo sapiens, UniProt P61981+Q13526); experiment: Fluorescence anisotropy protein titration, Pin1_72/14-3-3γ at constant compound; conditions: based on internal DMSO control and 100 μM fragment
T3 construct: the full length 14-3-3γ was dialysis against 25 mM HEPES pH 7.5; made in house; host or cells: E. coli BL21(DE3), pPROEX HTb
Description: Inspired by the binding poses of 3 and 9 we combined their structural features to improve stabilization. […] In case of complex stabilization, a left shift of apparent KD values is expected, here described as stabilization factors (SF).
as §1

14-3-3/Pin1_72 complex = target: T4, 14-3-3/Pin1_72 complex (Homo sapiens, UniProt P61981); experiment: Cooperativity analysis, 14-3-3 titrations at varied constant fragment concentration
T4 construct: the full length 14-3-3γ was dialysis against 25 mM HEPES pH 7.5; made in house; host or cells: E. coli BL21(DE3), pPROEX HTb
Description: Cooperativity in ternary complex formation. In contrast to PPI inhibition, where affinity to one of the protein pockets is the driving force for drug development, design of molecular glues is driven by cooperative ternary complex formation. Both CC50 and SF values are concentration dependent values and might differ based on assay design. […] Cooperative complex formation is often accompanied by structural changes of the interface of a complex which translates to increased stability of the ternary com-plex. In order to assess cooperativity of the ternary complex, fragments 13, 23, 27 and 28 were selected for cooper-activity analysis. The α-factor of the fragments were determined using 14-3-3 titrations in the presence of varied, but constant concentration of fragment in a dose-dependent manner. […] Further, the interval of change in stabilization further describes the systems cooperative behaviour.
However, at higher concentration regimes significant assay interference was observed, probably due to compound aggregation. Fragments 23, 27 and 28 all reached saturation or approached saturation enabling accurate determination of α-factor. […] KD remains constant also at higher concentrations of FC-A, indicating non-specific effects.

[1] = target: T5, 14-3-3σ(C42)/ERα-pp complex (Homo sapiens, UniProt P31947, C38N/N42C); experiment: Disulfide tethering primary screen, intact protein LC/MS, protein-peptide complex
T5 construct: with a truncated C-terminus after T231; His6 (N, cleaved yes); made in house; host or cells: E. coli NiCo21 (DE3), pPROEX HTb
Description: Apo-14-3-3σ or the 14-3-3σ/ERα-pp complex was screened against a 1600-member disulfide library under mildly reducing conditions (100 μM betamercaptoethanol; βME). Conjugate formation for each individual reaction was analyzed by intact protein MS. Three peaks observed in mass spectra corresponded to apo, βME-capped, and fragment-conjugated 14-3-3σ. The ‘percent tethering’, defined as the intensity of the fragment-specific conjugate protein peak divided by the sum of the intensities for all protein peaks, was calculated for each individual experiment using an automated pipeline. (492)
Disulfide Tethering screening and data processing. The primary screening was performed by incubating the target with individual compounds in a 384-well plate format. A custom library of 1600 disulfide-containing fragments of the UCSF Small Molecule Discovery Center (SMDC), synthesized as previously reported, was available as 50 mM stock solutions in DMSO. (496, 497) For screening, 14-3-3σ wild-type and Cys-mutants were diluted to 100 nM in buffer (10 mM Tris, 100 μM betamercaptoethanol (βME), pH 8.0) and plated in 384-well plates (15 μL/well). 30 nL of each fragment was pinned from the library master plates into the protein samples using a Biomek FX (Beckman) to give a final concentration of 100 μM. The duplicate experiments additionally contained 200 nM ERα-pp. The reaction mixtures were incubated for 3 hours at RT before being subjected to LC/MS (I-class Acquity UPLC/Xevo G2-XS Quadrupole Time of Flight mass spectrometer, Waters). Data collection and automated processing followed a custom workflow, as previously described. (492) All compounds described in the text were from the same lot as the original screening material.

SMILES: CC[C@H](C)[C@H](NC(=O)[C@H](Cc1ccc(O)cc1)NC(=O)[C@H](Cc1ccc(O)cc1)NC(=O)[C@H](CCCCN)NC(C)=O)C(=O)N[C@H](C(=O)NCC(=O)N[C@@H](CCC(=O)O)C(=O)N[C@@H](C)C(=O)N[C@@H](CCC(=O)O)C(=O)NCC(=O)N[C@@H](Cc1ccccc1)C(=O)N1CCC[C@H]1C(=O)N[C@@H](C)C(=O)N[C@H](C(=O)N[C@H](C(=O)O)C(C)C)[C@@H](C)OP(=O)(O)O)[C@@H](C)O [ERα-pp] (Ac-KYYITGEAEGFPA[pT]V-OH)
- EC50 (14-3-3σ(C42)): 0.3 µM

SMILES: CC(C)C[C@H](NC(=O)CNC(=O)[C@H](CCC(N)=O)NC(=O)CNC(=O)[C@H](Cc1c[nH]cn1)NC(=O)CNC(=O)[C@H](CO)NC(=O)c1ccc2c(c1)C(=O)OC21c2ccc(O)cc2Oc2cc(O)ccc21)C(=O)N[C@@H](CC(C)C)C(=O)N[C@@H](CC(=O)O)C(=O)N[C@@H](C)C(=O)N[C@@H](CC(C)C)C(=O)N[C@@H](CC(=O)O)C(=O)N[C@@H](CC(C)C)C(=O)N[C@@H](C)C(=O)N[C@@H](CO)C(N)=O [ExoS]
- EC50 (14-3-3σ(C42)): 11.1 µM

SMILES: CC(C)[C@H](NC(=O)[C@H](COP(=O)(O)O)NC(=O)[C@H](CCCCN)NC(=O)[C@H](CCCNC(=N)N)NC(=O)[C@H](CCCNC(=N)N)NC(=O)c1ccc2c(c1)C(=O)OC21c2ccc(O)cc2Oc2cc(O)ccc21)C(=O)O [TASK3-pp, KRRKpS^373V-OH] (5FAM-RRK[pS]V-OH)
- EC50 (14-3-3σ(C42); fluorescein-labeled peptide): 0.2 µM

SMILES: CC(C)C[C@H](NC(=O)[C@H](CCC(N)=O)NC(=O)[C@H](CC(C)C)NC(=O)[C@H](CO)NC(=O)[C@H](C)NC(=O)[C@@H]1CCCN1C(=O)[C@H](CO)NC(=O)[C@H](COP(=O)(O)O)NC(=O)[C@H](Cc1c[nH]cn1)NC(=O)[C@H](CO)NC(=O)[C@H](CCCNC(=N)N)NC(=O)c1ccc2c(c1)C(=O)OC21c2ccc(O)cc2Oc2cc(O)ccc21)C(=O)NCC(=O)N[C@H](C(N)=O)[C@@H](C)O [TAZ-pp, RSHpS^89SPASLQ] (5FAM-RSH[pS]SPASLQLGT-NH2)
- EC50 (14-3-3σ(C42); fluorescein-labeled peptide): 2.2 µM

SMILES: O=Cc1ccc(-n2ccnc2-c2ccc(O)cc2)cc1Br [compound 25, 2-bromo-4-(2-(4-hydroxyphenyl)-1H-imidazol-1-yl)benzaldehyde]
- activity in FA assay (Pin1_72/14-3-3 complex): limited effect

SMILES: NCCSSCCCC(=O)NCC(c1ccccc1)c1ccccc1 [compound 916971]
- hit category (binding in presence vs absence of ERα-pp) [1]: cooperative

SMILES: CN(C)CCSSCCn1cc(CN2C(=O)C(=O)c3ccccc32)nn1 [compound 957838]
- hit category (binding in presence vs absence of ERα-pp) [1]: neutral

The next lines start with results.

- SF (fold stabilization) (Pin1_72/14-3-3γ): 0.8
SMILES: O=Cc1ccc(-n2ccnc2)c(Cl)c1 [L2]
- activity in FA assay (Pin1_72/14-3-3 complex): significant complex formation

- cooperativity factor (α-factor) (14-3-3/Pin1_72 complex): approximately 60
- SF (fold stabilization) (Pin1_72/14-3-3γ): 18.9
SMILES: O=Cc1ccc(-n2ccnc2-c2ccccc2Br)cc1Br [compound 23, 2-bromo-4-(2-(2-bromophenyl)-1H-imidazol-1-yl)benzaldehyde]

- SF (fold stabilization) (Pin1_72/14-3-3γ): 2.27
SMILES: O=Cc1ccc(-n2ccnc2-c2cccnc2)cc1Br [compound 26, 2-bromo-4-(2-(pyridin-3-yl)-1H-imidazol-1-yl)benzaldehyde]
- activity in FA assay (Pin1_72/14-3-3 complex): limited effect

- hit category (binding in presence vs absence of ERα-pp) [1]: cooperative
SMILES: CN(C)CCSSCCNC(=O)c1ccccc1Sc1ccccc1C#N [compound 917137]

- hit category (binding in presence vs absence of ERα-pp) [1]: neutral
SMILES: CN(C)CCSSCCNC(=O)C1CCN(C(=O)c2ccccc2NC(=O)c2ccccc2)CC1 [compound 917805]
